Measured values from patent US20170081338A1, “SUBSTITUTED HETEROARYL COMPOUNDS AND METHODS OF USE” (Sunshine Lake Pharma Co., Ltd., priority 2015, published 2017).

Key:
[1] = Compound stability in human liver microsomes; assay type: in vitro ADME; settings: pH 7.4; for half-life at 5 μM: human liver microsomes 0.5 mg protein/mL, compound 5 μM, NADPH, 37° C., read-out: Human T1/2; for CLint scaled at 5 μM: human liver microsomes, in vivo CLint extrapolated
Method: (§1) Human or rat liver microsomes incubations were conducted in duplicate in polypropylene tubes. The typical incubation mixtures consisted of human or rat liver microsomes (0.5 mg protein/mL), compounds of interest (5 μM) and NADPH (1.0 mM) in a total volume of 200 μL potassium phosphate buffer (PBS, 100 mM, pH 7.4). Compounds were dissolved in DMSO and diluted with PBS such that the final concentration of DMSO was 0.05%. The enzymatic reactions were commenced with the addition of protein after a 3-min preincubation and incubated in a water bath open to the air at 37° C. Reactions were terminated at various time points (0, 5, 10, 15, 30, 60 min) by adding equal volume of ice-cold acetonitrile. The samples were stored at −80° C. until LC/MS/MS assays.
(§2) The concentrations of compounds in the incubation mixtures of human or rat liver microsomes were determined by a LC/MS/MS method. The ranges of the linearity in the concentration range were determined for each tested compounds.
(§3) A parallel incubation was performed using denatured microsomes as the negative control, and reactions were terminated at various time points (0, 15, 60 min) after incubation at 37° C.
(§4) Dextromethorphan (70 μM) was selected as the positive control, and reactions were terminated at various time points (0, 5, 10, 15, 30, 60 min) after incubation at 37° C. Both positive and negative control samples were included in each assay to ensure the integrity of the microsomal incubation system.
(§5) The concentrations of compounds in human or rat liver microsome incubations were plotted as a percentage of the relevant zero time point control for each reaction. The in vivo CLint were extrapolated (ref.: Naritomi, Y.; Terashita, S.; Kimura, S.; Suzuki, A.; Kagayama, A.; and Sugiyama, Y.; Prediction of human hepatic clearance from in vivo animal experiments and in vitro metabolic studies with liver microsomes from animals and humans. Drug Metab. Dispos., 2001, 29: 1316-1324).

[2] = Compound stability in rat liver microsomes; assay type: in vitro ADME; settings: pH 7.4; for half-life at 5 μM: rat liver microsomes 0.5 mg protein/mL, compound 5 μM, NADPH, 37° C., read-out: Rat T1/2; for CLint scaled at 5 μM: rat liver microsomes, in vivo CLint extrapolated
Method: as §1, §2, §3, §4, §5

Aurora-A (h) = target: T1, Aurora-A (h) (Homo sapiens, UniProt O14965); assay: Aurora-A (h) kinase assay; assay type: biochemical
T1 construct: purchased Millipore UK Ltd (contract assay service)
T1 sequence (O14965 1-403): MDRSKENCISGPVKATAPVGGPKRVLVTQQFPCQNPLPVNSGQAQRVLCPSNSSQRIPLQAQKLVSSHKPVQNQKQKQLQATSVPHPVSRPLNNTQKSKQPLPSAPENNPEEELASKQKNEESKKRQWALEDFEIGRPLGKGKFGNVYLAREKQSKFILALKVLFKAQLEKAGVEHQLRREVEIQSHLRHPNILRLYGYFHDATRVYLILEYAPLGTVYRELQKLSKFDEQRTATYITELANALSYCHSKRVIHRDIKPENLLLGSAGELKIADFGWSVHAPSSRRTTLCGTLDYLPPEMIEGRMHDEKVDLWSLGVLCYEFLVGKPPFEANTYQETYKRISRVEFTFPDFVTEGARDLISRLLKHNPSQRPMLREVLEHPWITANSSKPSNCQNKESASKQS
Method: The above assay procedure can be used to determine the IC50 for inhibition and/or the inhibition constant, Ki. The IC50 is defined as the concentration of compound required to reduce the enzyme activity by 50% under the condition of the assay. The IC50 value is estimated by preparing a 10 point curve using a 1/2 log dilution series (for example, a typical curve may be prepared using the following compound concentrations: 3 μM, 1 μM, 0.3 μM, 0.1 μM, 0.03 μM, 0.01 μM, 0.003 μM, 0.001 μM, 0.0003 μM and 0 μM).
Aurora-A (h) is incubated with 8 mM MOPS pH 7.0, 0.2 mM EDTA, 200 μM LRRASLG (Kemptide), 10 mM MgAcetate and [γ-^33P-ATP] (specific activity approx. 500 cpm/pmol, concentration as required). The reaction is initiated by the addition of the MgATP mix. After incubation for 40 minutes at room temperature, the reaction is stopped by the addition of 3% phosphoric acid solution. 10 μL of the reaction is then spotted onto a P30 filtermat and washed three times for 5 minutes in 75 mM phosphoric acid and once in methanol prior to drying and scintillation counting.
The kinase assays described herein were performed at Millipore UK Ltd, Dundee Technology Park, Dundee DD2 1SW, UK.

[3] = Pharmacokinetics after intravenous and oral administration in rats; assay type: in vivo; settings: for Clearance (CL) after iv dosing / AUC(0-t) / half-life / Vd: dose 1 mg/kg, iv dosing; for F: oral bioavailability; for AUC(0-t) / half-life / Vd: rat, plasma; for Vd: read-out: Vss
Method: The LC/MS/MS system used in the analysis consists of an Agilent 1200 Series vacuum degasser, binary pump, well-plate autosampler, thermostatted column compartment, the Agilent G6430 Triple Quadrupole Mass Spectrometer with an electrosprayionization (ESI) source. Quantitative analysis was carried out using MRM mode. The parameters for MRM transitions are in the Table A.
An Agilent XDB-C18, 2.1×30 mm, 3.5 μM column was used for the analysis. 5 μL of the samples were injected. Analysis condition: The mobile phase was 0.1% formic acid in water (A) and 0.1% formic acid in methanol (B). The flow rate was 0.4 mL/min. And the gradient of Mobile phase was in the Table B.
Alternatively, an Agilent 6330 series LC/MS/MS spectrometer equipped with G1312A binary pumps, a G1367A autosampler and a G1314C UV detector were used in the analysis. An ESI source was used on the LC/MS/MS spectrometer. The analysis was done in positive ion mode as appropriate and the MRM transition for each analyte was optimized using standard solution. A Capcell MP-C18 100×4.6 mm I.D., […] column (Phenomenex, Torrance, Calif., USA) was used during the analysis. The mobile phase was 5 mM ammonia acetate, 0.1% MeOH in water (A): 5 mM ammonia acetate, 0.1% MeOH in acetonitrile (B) (70/30, v/v). The flow rate was 0.6 mL/min. Column was maintained at ambient temperature. 20 μL of the samples were injected.
The compounds disclosed herein are assessed in pharmacokinetic studies in mice, rats, dogs or monkeys. The compounds are administered as a water solution, 2% HPMC+1% TWEEN®80 in water solution, 5% DMSO+5% solutol in saline, 4% MC suspension or capsule. For the intravenous administration, the animals are generally given at 0.5, 1 or 2 mg/kg dose. For the oral (p.o.) dosing, mice and rats are generally given 0.5, 1, 5 or 10 mg/kg dose, and dogs and monkeys are generally given 10 mg/kg dose. The blood samples (0.3 mL) are drawn at 0.25, 0.5, 1.0, 2.0, 3.0, 4.0, 6.0, 8.0, 12 and 24 h time points or 0.083, 0.25, 0.5, 1.0, 2.0, 4.0, 6.0, 8.0 and 24 h time points and centrifuged at 3,000 or 4000 rpm for 2 to 10 min. The plasma solutions are collected, and stored at −20° C. or −70° C. until analyzed by LC/MS/MS as described above.

| Compound | half-life at 5 μM [1] | CLint scaled at 5 μM [1] | half-life at 5 μM [2] | CLint scaled at 5 μM [2] | IC50 (Aurora-A (h)) | Clearance (CL) after iv dosing [3] | F [3] | AUC(0-t) [3] | half-life [3] | Vd [3] |
| --- | --- | --- | --- | --- | --- | --- | --- | --- | --- | --- |
| Cn1cc(Nc2ncc(Cl)c(N[C@@H]3COC4C3OC[C@@H]4Nc3ccc(C#N)nn3)n2)cn1 (stereo partly drawn) [Ex. 3, 6-(((3S,6R)-6-((5-chloro-2-((1-methyl-1H-pyrazol-4-yl)amino)pyrimidin-4-yl)amino)hexahydrofuro[3,2-b]furan-3-yl)amino)pyridazine-3-carbonitrile] | 142 min | 12.3 mL/min/kg | 22 min | 113 mL/min/kg | 45 nM | – | – | – | – | – |
| Cn1cc(Nc2ncc(Cl)c(N[C@H]3COC4C3OC[C@H]4NS(=O)(=O)N3CCCC3)n2)cn1 (stereo partly drawn) [Ex. 6, N-((3R,6S)-6-((5-chloro-2-((1-methyl-1H-pyrazol-4-yl)amino)pyrimidin-4-yl)amino)hexahydrofuro[3,2-b]furan-3-yl)pyrrolidine-1-sulfonamide] | 37.3 min | 46.5 mL/min/kg | 37.7 min | 65.8 mL/min/kg | 984 nM | 53.8 mL/min/kg | 44.3% | 309 ng·h/mL | 34.8 min | 1.54 L/kg |
| Cn1cc(Nc2ncc(Cl)c(N[C@@H]3COC4C3OC[C@@H]4NS(=O)(=O)C3CCCC3)n2)cn1 (stereo partly drawn) [Ex. 14, N-((3S,6R)-6-((5-chloro-2-((1-methyl-1H-pyrazol-4-yl)amino)pyrimidin-4-yl)amino)hexahydrofuro[3,2-b]furan-3-yl)cyclopentanesulfonamide] | 24.7 min | 70.4 mL/min/kg | 47.7 min | 52.1 mL/min/kg | 51 nM | 33.3 mL/min/kg | 91.9% | 497 ng·h/mL | 54 min | 1.08 L/kg |
| Cn1cc(Nc2ncc(Cl)c(N[C@@H]3COC4C3OC[C@@H]4NS(=O)(=O)CC3CCOC3)n2)cn1 (stereo partly drawn) [Ex. 16, N-((3S,6R)-6-((5-chloro-2-((1-methyl-1H-pyrazol-4-yl)amino)pyrimidin-4-yl)amino)hexahydrofuro[3,2-b]furan-3-yl)-1-(tetrahydrofuran-3-yl)methanesulfonamide] | 39.1 min | 44.4 mL/min/kg | 106 min | 23.4 mL/min/kg | 17 nM | – | – | – | – | – |
| Cn1cc(Nc2ncc(Cl)c(N[C@@H]3COC4C3OC[C@@H]4NS(=O)(=O)C3CCOC3)n2)cn1 (stereo partly drawn) [Ex. 20, N-((3S,6R)-6-((5-chloro-2-((1-methyl-1H-pyrazol-4-yl)amino)pyrimidin-4-yl)amino)hexahydrofuro[3,2-b]furan-3-yl)tetrahydrofuran-3-sulfonamide] | 75.5 min | 23 mL/min/kg | 116 min | 21.5 mL/min/kg | 41 nM | 60.3 mL/min/kg | 42.5% | 284 ng·h/mL | 27.6 min | 1.41 L/kg |

The next lines start with the values.

| half-life at 5 μM [1] | CLint scaled at 5 μM [1] | half-life at 5 μM [2] | CLint scaled at 5 μM [2] | IC50 (Aurora-A (h)) | Clearance (CL) after iv dosing [3] | F [3] | AUC(0-t) [3] | half-life [3] | Vd [3] | Compound |
| --- | --- | --- | --- | --- | --- | --- | --- | --- | --- | --- |
| 563 min | 3.09 mL/min/kg | 103 min | 24 mL/min/kg | 53 nM | 23.7 mL/min/kg | 51.7% | 712 ng·h/mL | 21 min | 0.69 L/kg | Cn1cc(Nc2ncc(Cl)c(N[C@@H]3COC4C3OC[C@@H]4NS(=O)(=O)C3CC3)n2)cn1 (stereo partly drawn) [Ex. 4, N-((3S,6R)-6-((5-chloro-2-((1-methyl-1H-pyrazol-4-yl)amino)pyrimidin-4-yl)amino)hexahydrofuro[3,2-b]furan-3-yl)cyclopropanesulfonamide] |
| 243 min | 7.16 mL/min/kg | 82.7 min | 30 mL/min/kg | 1000 nM | 38.8 mL/min/kg | 44.0% | 420 ng·h/mL | 108 min | 2.01 L/kg | Cn1cc(Nc2ncc(Cl)c(N[C@H]3COC4C3OC[C@H]4NS(=O)(=O)CC(F)(F)F)n2)cn1 (stereo partly drawn) [Ex. 5, N-((3R,6S)-6-((5-chloro-2-((1-methyl-1H-pyrazol-4-yl)amino)pyrimidin-4-yl)amino)hexahydrofuro[3,2-b]furan-3-yl)-2,2,2-trifluoroethanesulfonamide] |
| 32.9 min | 52.8 mL/min/kg | 41.4 min | 60 mL/min/kg | 1030 nM | 57 mL/min/kg | 74.5% | 291 ng·h/mL | 58.2 min | 2.56 L/kg | CC(C)CS(=O)(=O)N[C@@H]1COC2C1OC[C@@H]2Nc1nc(Nc2cnn(C)c2)ncc1Cl (stereo partly drawn) [Ex. 13, N-((3R,6S)-6-((5-chloro-2-((1-methyl-1H-pyrazol-4-yl)amino)pyrimidin-4-yl)amino)hexahydrofuro[3,2-b]furan-3-yl)-2-methylpropane-1-sulfonamide] |
| 143 min | 12.1 mL/min/kg | 91.6 min | 27.1 mL/min/kg | 34 nM | 23.2 mL/min/kg | 86.5% | 726 ng·h/mL | 47.4 min | 1.11 L/kg | CC(C)S(=O)(=O)N[C@H]1COC2C1OC[C@H]2Nc1nc(Nc2cnn(C)c2)ncc1Cl (stereo partly drawn) [Ex. 15, N-((3S,6R)-6-((5-chloro-2-((1-methyl-1H-pyrazol-4-yl)amino)pyrimidin-4-yl)amino)hexahydrofuro[3,2-b]furan-3-yl)propane-2-sulfonamide] |
